Data published in US8940800B2, “Pharmaceutical compositions with enhanced performance” (Bend Research, Inc., priority 2004, dated 2015).
Like-named read-outs stand apart in the source and are kept apart here.

What was measured:
[1] = In vivo test of oral powder for constitution in beagle dogs (Example 2); details: male, dog, plasma, Fed, 90 mgA Drug 1 oral OPC
Experimental: Dispersions 1 and 4 were used as oral powders for constitution (OPC) for evaluating the performance of the dispersions in in vivo tests using male beagle dogs. The OPC was dosed as a suspension in a solution containing 0.5 wt % hydroxypropyl cellulose METHOCEL® (from Dow Chemical Co.), and was prepared as follows. First, 7.5 g of METHOCEL® was weighed out and added slowly to approximately 490 ml of water at 90-100° C. to form a METHOCEL® suspension. After all the METHOCEL® was added, 1000 mL of cool/room temperature water was added to the suspension, which was then placed in an ice water bath. When all of the METHOCEL® had dissolved, 2.55 g of polyoxyethylene 20 sorbitan monooleate (TWEEN 80) were added and the mixture stirred until the TWEEN 80 had dissolved, thus forming a stock suspension solution.
To form the OPC, sufficient quantity of the test composition to result in a 90 mgA amount of Drug 1 was accurately weighed and placed into a mortar. (“mgA” refers to mg of active drug.) A 20 mL quantity of the stock suspension solution was added to the mortar and the test composition was mixed with a pestle. Additional METHOCEL® suspension was added gradually with mixing until a total of 400 mL of the stock suspension solution had been added to the mortar. The suspension was then transferred to a flask, thus forming the OPC. This process was repeated for each of Dispersions 1 and 4. […]

[2] = In vivo test of oral powder for constitution in beagle dogs (Example 10); details: male, dog, plasma, Fed, 90 mgA Drug 1 oral OPC
Experimental: Dispersion 17, consisting of 50:50 Drug 1:HPMCA Polymer 10, was dosed in male beagle dogs as an oral powder for constitution (OPC), by suspending the dispersion in a solution containing 0.5 wt % hydroxypropyl cellulose METHOCEL® (from Dow Chemical Co.), as follows. First, 7.5 g of METHOCEL® was weighed out and added slowly to approximately 490 ml of water at 90-100° C. to form a METHOCEL® suspension. After all the METHOCEL® was added, 1000 mL of cool/room temperature water was added to the suspension, which was then placed in an ice water bath. When all of the METHOCEL® had dissolved, 2.55 g of polyoxyethylene 20 sorbitan monooleate (TWEEN 80) were added and the mixture stirred until the TWEEN 80 had dissolved, thus forming a stock suspension solution.
To form the OPC, sufficient quantity of the test composition to result in a 90 mgA amount of Drug 1 was accurately weighed and placed into a mortar. A 20 mL quantity of the stock suspension solution was added to the mortar and the test composition was mixed with a pestle. Additional METHOCEL® suspension was added gradually with mixing until a total of 400 mL of the stock suspension solution had been added to the mortar. The suspension was then transferred to a flask, thus forming the OPC. In addition, an OPC containing 90 mgA of amorphous Drug 1 was prepared using the same procedure.
Six male beagle dogs were each dosed with the OPC. […]

[3] = In vitro membrane permeation test, Drug 6 (Example 7); assay type: physicochemical; details: Drug 6, feed solution 0.5% NaTC/POPC, permeate 60 wt % decanol in decane
Experimental: Dispersion 19 (75:25 Drug 6:Polymer 17) was evaluated in vitro using the membrane permeation test described for Example 6, except that the permeate solution consisted of 60 wt % decanol in decane. The feed solution was made using MFD solution (0.5% NaTC/POPC). The concentration of Drug 6 in the feed solution would have been 500 μg/mL (354 μgA/mL), if all of the drug had dissolved.
As a control, crystalline Drug 6 alone was used. The concentration of drug added would have been 354 μgA/mL Drug 6, if all of the drug had dissolved.
The maximum flux of drug across the membrane (in units of μg/cm^2-min) was determined from the data by estimating the tangent to the concentration versus time curve at time 0.

[4] = Microcentrifuge dissolution test in PBS with NaTC/POPC, Drug 6 (Examples 8 and 12); assay type: physicochemical; details: 37° C., 0 to 90 minutes
Experimental: Dispersion 19 was also evaluated in a microcentrifuge dissolution test using the following procedures. For this test, 1.7 mg of Dispersion 19 and 1.27 mg of Crystalline Drug 6 was added to respective microcentrifuge tubes. The tubes were placed in a 37° C. temperature-controlled bath, and 1.8 mL phosphate buffered saline (PBS) at pH 6.5 and 290 mOsm/kg containing 7.3 mM sodium taurocholic acid and 1.4 mM of 1-palmitoyl-2-oleyl-sn-glycero-3-phosphocholine was added to each tube. The concentration of Drug 6 would have been […] if all of the drug had dissolved. The samples were quickly mixed using a vortex mixer for about 60 seconds. The samples were centrifuged at 13,000 G at 37° C. for 1 minute. The resulting supernatant solutions were then sampled and diluted 1:6 (by volume) with methanol and then analyzed by high-performance liquid chromatography (HPLC). The contents of the tubes were mixed on the vortex mixer and allowed to stand undisturbed at 37° C. until the next sample was taken. Samples were collected at 4, 10, 20, 40, 90, and 1200 minutes.
The concentrations of Drug 6 obtained in these samples were used to determine the values of the maximum drug concentration between 0 and 90 minutes (MDC90) and the area under the curve from 0 to 90 minutes (AUC90).
A physical mixture of 75 wt % Drug 6 and 25 wt % HPMCA Polymer 16 was evaluated using the microcentrifuge dissolution test described in Example 8. The concentration of Drug 6 would have been 500 μgA/mL if all of the drug had dissolved. A control consisting of a physical mixture of 75 wt % Drug 6 and 25 wt % HPMC (Dow E3 Prem LV) was tested in the same test.

[5] = physchem; details: pH 6, aqueous buffer
[6] = not told
[7] = Table 16, PBS pH 6.5 with 7.3 mM NaTC/1.4 mM POPC
[8] = Table 20, PBS pH 6.5 with NaTC/POPC

CCOC(=O)N1c2ccc(C(F)(F)F)cc2[C@@H](N(Cc2cc(C(F)(F)F)cc(C(F)(F)F)c2)C(=O)OC)C[C@H]1CC [Amorphous Drug 1, [2R,4S]4-[(3,5-bis-trifluoromethyl-benzyl)-methoxycarbonyl-amino]-2-ethyl-6-trifluoromethyl-3,4-dihydro-2H-quinoline-1-carboxylic acid ethyl ester]
Cmax [1]: 190 ± 55 ng/mL
AUC(0-t) ([1]; read-out: AUC(0-12)): 640 ± 240 ng·h/mL
Cmax [2]: 190 ± 55 ng/mL
AUC(0-t) ([2]; read-out: AUC(0-12)): 640 ± 240 ng·h/mL

CCCc1nn(C)c2c(=O)[nH]c(-c3cc(S(=O)(=O)N4CCN(C)CC4)ccc3OCC)nc12.O=C(O)CC(O)(CC(=O)O)C(=O)O [Crystalline Drug 6, 1-[4-ethoxy-3-(6,7-dihydro-1-methyl-7-oxo-3-propyl-1H-pyrazolo[4,3-d]pyrimidin-5-yl)phenylsulphonyl]-4-methylpiperazine citrate salt]
Maximum Drug Flux [3]: 3.8 μg/cm^2-min
AUC90 [4, 7]: 7,000 min * μgA/mL
MDC,90 [4, 7]: 98 μgA/mL
AUC90 [4, 8]: 7,000 min * μgA/mL
MDC,90 [4, 8]: 98 μgA/mL

CCCc1nn(C)c2c(=O)[nH]c(-c3cc(S(=O)(=O)N4CCN(C)CC4)ccc3OCC)nc12.O=C(O)CC(O)(CC(=O)O)C(=O)O [Drug 6, 1-[4-ethoxy-3-(6,7-dihydro-1-methyl-7-oxo-3-propyl-1H-pyrazolo[4,3-d]pyrimidin-5-yl)phenylsulphonyl]-4-methylpiperazine citrate salt]
solubility [5]: ~20 µg/mL

[2R,4S]4-[(3,5-bis-trifluoromethyl-benzyl)-methoxycarbonyl-amino]-2-ethyl-6-trifluoromethyl-3,4-dihydro-2H-quinoline-1-carboxylic acid ethyl ester [Crystalline Drug 1]
Maximum Drug Flux [6]: 0.16 μg/cm^2-min
